Reference: patent publication US20130302442A1, “METHODS OF USING (4S,4AS,5AR,12AS)-4-DIMETHYLAMINO-3,10,12,12A-TETRAHYDROXY-7-[(METHOXY(METHYL)AMINO)-METHYL]-1,11-DIOXO-1,4,4A,5,5A,6,11,12A-OCTAHYDRO-NAPHTHACENE-2-CARBOXYLIC ACID AMIDE” (priority 2012, published 2013)
≈ marks a conversion by molar mass, not a printed value. Where two headings read alike, the source gives them in different places.

Tests used:
Experiment in all cases: In vitro MIC testing, antibacterial spectrum of activity
P. acnes = type: cell-based, Propionibacterium acnes
S. pneumoniae = type: cell-based, Streptococcus pneumoniae
S. pyogenes = type: cell-based
S. agalactiae = type: cell-based
[1] = system: Streptococcus spp. [Group C]; type: cell-based
E. faecalis = type: cell-based; conditions: for MIC50 / MIC90: Enterococcus faecalis
E. faecium = type: cell-based; conditions: for MIC50 / MIC90: Enterococcus faecium
E. coli = type: cell-based; conditions: Escherichia coli
K. pneumoniae = type: cell-based; conditions: K. pneumoniae (31 isolates); for MIC50 / MIC90: Klebsiella pneumoniae
E. cloacae = type: cell-based; conditions: Enterobacter cloacae; E. cloacae (30 isolates)
P. mirabilis = type: cell-based; conditions: Proteus mirabilis; P. mirabilis (30 isolates)
P. aeruginosa = type: cell-based; conditions: P. aeruginosa (11 isolates); for MIC50 / MIC90: Pseudomonas aeruginosa
Salmonella Spp. = type: cell-based; conditions: Salmonella
S. aureus = type: cell-based, Staphylococcus aureus; conditions: for MIC50 / MIC90: Staphylococcus aureus
S. epidermidis = type: cell-based, Staphylococcus epidermidis; conditions: for MIC50 / MIC90: Staphylococcus epidermidis
S. haemolyticus = type: cell-based
[2] = S. pneumoniae [PSSP] (32 isolates)
[3] = Streptococcus spp. [Group C] (30 isolates)
[4] = E. faecalis [VSE] (31 isolates)

Compound: Penicillin
- MIC Range (P. acnes): 0.03 to 0.5 µg/mL
- MIC50 (S. pneumoniae; [2]): ≦0.015 μg/mL
- MIC90 (S. pneumoniae; [2]): 0.06 µg/mL
- MIC Range (S. pneumoniae; [2]): ≦0.015-0.12 μg/mL
- MIC50 (S. pyogenes; S. pyogenes (32 isolates)): ≦0.015 μg/mL
- MIC90 (S. pyogenes; S. pyogenes (32 isolates)): ≦0.015 μg/mL
- MIC Range (S. pyogenes; S. pyogenes (32 isolates)): ≦0.015-0.25 μg/mL
- MIC50 (S. agalactiae; S. agalactiae (31 isolates)): 0.03 µg/mL
- MIC90 (S. agalactiae; S. agalactiae (31 isolates)): 1 µg/mL
- MIC Range (S. agalactiae; S. agalactiae (31 isolates)): ≦0.015-2 μg/mL
- MIC50 [1, 3]: ≦0.015 μg/mL
- MIC90 [1, 3]: ≦0.015 μg/mL
- MIC Range [1, 3]: ≦0.015-0.03 μg/mL

Compound: CC1(C)S[C@@H]2[C@H](NC(=O)[C@H](N)c3ccccc3)C(=O)N2[C@H]1C(=O)O [Ampicillin]
- MIC Range (E. faecalis; [4]): 0.5 to 8 µg/mL
- MIC50 (E. faecalis; E. faecalis [VSE] (31 isolates), read-out: MIC50): 1 µg/mL (≈ 2.86 µM)
- MIC90 (E. faecalis; E. faecalis [VSE] (31 isolates), read-out: MIC90): 1 µg/mL (≈ 2.86 µM)
- MIC50 (E. faecium; E. faecium [VRE] (30 isolates), read-out: MIC50): > 64 µg/mL
- MIC90 (E. faecium; E. faecium [VRE] (30 isolates), read-out: MIC90): > 64 µg/mL
- MIC50 (E. faecium; E. faecium [VSE] (32 isolates), read-out: MIC50): 64 µg/mL (≈ 183 µM)
- MIC90 (E. faecium; E. faecium [VSE] (32 isolates), read-out: MIC90): > 64 µg/mL
- MIC50 (E. coli): > 64 µg/mL
- MIC90 (E. coli): > 64 µg/mL
- MIC Range (K. pneumoniae): >64 µg/mL
- MIC50 (K. pneumoniae): > 64 µg/mL
- MIC90 (K. pneumoniae): > 64 µg/mL
- MIC50 (E. cloacae): 64 µg/mL (≈ 183 µM)
- MIC90 (E. cloacae): > 64 µg/mL
- MIC50 (P. mirabilis): 4 µg/mL (≈ 11.4 µM)
- MIC90 (P. mirabilis): > 64 µg/mL
- MIC Range (P. aeruginosa): >64 µg/mL
- MIC50 (P. aeruginosa): > 64 µg/mL
- MIC90 (P. aeruginosa): > 64 µg/mL
- MIC50 (Salmonella Spp.): 1 µg/mL (≈ 2.86 µM)
- MIC90 (Salmonella Spp.): > 64 µg/mL

Compound: CN[C@H](CC(C)C)C(=O)N[C@H]1C(=O)N[C@@H](CC(N)=O)C(=O)N[C@H]2C(=O)N[C@H]3C(=O)N[C@H](C(=O)N[C@H](C(=O)O)c4cc(O)cc(O)c4-c4cc3ccc4O)[C@H](O)c3ccc(c(Cl)c3)Oc3cc2cc(c3O[C@@H]2O[C@H](CO)[C@@H](O)[C@H](O)[C@H]2O[C@H]2C[C@](C)(N)[C@H](O)[C@H](C)O2)Oc2ccc(cc2Cl)[C@H]1O [Vancomycin]
- MIC Range (P. acnes): 0.5-0.5 μg/mL
- MIC Range (S. aureus; S. aureus [MRSA] (31 isolates)): 0.5 to 2 µg/mL
- MIC Range (S. aureus; S. aureus [MSSA] (32 isolates)): 0.5 to 1 µg/mL
- MIC50 (S. aureus; MRSA): 1 µg/mL (≈ 0.69 µM)
- MIC90 (S. aureus; MRSA): 1 µg/mL (≈ 0.69 µM)
- MIC50 (S. aureus; MSSA): 1 µg/mL (≈ 0.69 µM)
- MIC90 (S. aureus; MSSA): 1 µg/mL (≈ 0.69 µM)
- MIC Range (S. epidermidis; S. epidermidis [MRSE] (32 isolates)): 1 to 2 µg/mL
- MIC Range (S. epidermidis; S. epidermidis [MSSE] (31 isolates)): 1 to 2 µg/mL
- MIC50 (S. epidermidis): 2 µg/mL (≈ 1.38 µM)
- MIC90 (S. epidermidis): 2 µg/mL (≈ 1.38 µM)
- MIC50 (S. epidermidis; MRSE): 2 µg/mL (≈ 1.38 µM)
- MIC90 (S. epidermidis; MRSE): 2 µg/mL (≈ 1.38 µM)
- MIC Range (S. pneumoniae; [2]): 0.06 to 0.25 µg/mL
- MIC50 (S. pneumoniae; Streptococcus pneumoniae): 0.25 µg/mL (≈ 0.173 µM)
- MIC90 (S. pneumoniae; Streptococcus pneumoniae): 0.25 µg/mL (≈ 0.173 µM)
- MIC Range (S. pyogenes; S. pyogenes (32 isolates)): 0.25 to 0.5 µg/mL
- MIC50 (S. pyogenes; Streptococcus pyogenes): 0.25 µg/mL (≈ 0.173 µM)
- MIC90 (S. pyogenes; Streptococcus pyogenes): 0.25 µg/mL (≈ 0.173 µM)
- MIC Range (S. agalactiae; S. agalactiae (31 isolates)): 0.25 to 2 µg/mL
- MIC50 (S. agalactiae; Streptococcus agalactiae): 0.5 µg/mL (≈ 0.345 µM)
- MIC90 (S. agalactiae; Streptococcus agalactiae): 0.5 µg/mL (≈ 0.345 µM)
- MIC Range (S. haemolyticus; S. haemolyticus (33 isolates)): 0.5 to 2 µg/mL
- MIC50 (S. haemolyticus; Staphylococcus haemolyticus): 1 µg/mL (≈ 0.69 µM)
- MIC90 (S. haemolyticus; Staphylococcus haemolyticus): 1 µg/mL (≈ 0.69 µM)
- MIC50 ([1]; Streptococcus): 0.25 µg/mL (≈ 0.173 µM)
- MIC90 ([1]; Streptococcus): 0.5 µg/mL (≈ 0.345 µM)
- MIC Range [1, 3]: 0.25 to 1 µg/mL
- MIC Range (E. faecalis; [4]): 0.5 to 4 µg/mL
- MIC50 (E. faecalis): 1 µg/mL (≈ 0.69 µM)
- MIC90 (E. faecalis): 2 µg/mL (≈ 1.38 µM)
- MIC Range (E. faecium; E. faecium [VRE] (30 isolates)): >64 µg/mL
- MIC Range (E. faecium; E. faecium [VSE] (32 isolates)): 0.25 to 2 µg/mL
- MIC50 (E. faecium): 1 µg/mL (≈ 0.69 µM)
- MIC90 (E. faecium): 1 µg/mL (≈ 0.69 µM)
- MIC50 (E. faecium; VRE): > 64 µg/mL
- MIC90 (E. faecium; VRE): > 64 µg/mL

Compound: CC(=O)OCC1=C(C(=O)O)N2C(=O)[C@@H](NC(=O)Cc3cccs3)[C@H]2SC1 [Cephalothin]
- MIC90 (E. coli): > 64 µg/mL
- MIC Range (K. pneumoniae): >64 µg/mL
- MIC50 (K. pneumoniae): > 64 µg/mL
- MIC90 (K. pneumoniae): > 64 µg/mL
- MIC50 (E. cloacae): > 64 µg/mL
- MIC90 (E. cloacae): > 64 µg/mL
- MIC50 (P. mirabilis): 8 µg/mL (≈ 20.2 µM)
- MIC90 (P. mirabilis): > 64 µg/mL
- MIC Range (P. aeruginosa): >64 µg/mL
- MIC50 (P. aeruginosa): > 64 µg/mL
- MIC90 (P. aeruginosa): > 64 µg/mL
- MIC50 (Salmonella Spp.): 2 µg/mL (≈ 5.04 µM)
- MIC90 (Salmonella Spp.): 16 µg/mL (≈ 40.4 µM)
